Measurements as given in ChEMBL document CHEMBL5120829, “Discovery and structural optimization of potent epidermal growth factor receptor (EGFR) inhibitors against L858R/T790M/C797S resistance mutation for lung cancer treatment” (Eur J Med Chem, 2022).
Calls of active or inactive are those of the source. No cut-off for these calls is given here.

What was measured:
[1] = Tmax in overnight fasted Sprague-Dawley rat at 20 mg/kg, iv by HPLC analysis; assay type: ADME, organism-based; details: in vivo
[2] = Clearance in overnight fasted Sprague-Dawley rat at 20 mg/kg, po by HPLC analysis; assay type: ADME, organism-based; details: in vivo
PC-9 [3] = assay: Induction of apoptosis in human PC-9 cells expressing EGFR L858R/T790M/C797S mutant assessed as early apoptotic cells at 0.01 uM incubated for 24 hrs by annexin-V/propidium iodide staining-based flow cytometry analysis (reference value: 0.3 %); assay type: functional
PC-9 [4] = assay: Induction of apoptosis in human PC-9 cells expressing EGFR L858R/T790M/C797S mutant assessed as late apoptotic cells at 0.25 uM incubated for 24 hrs by annexin-V/propidium iodide staining-based flow cytometry analysis (reference value: 0.14 %); assay type: functional
PC-9 [5] = assay: Induction of apoptosis in human PC-9 cells expressing EGFR L858R/T790M/C797S mutant assessed as dead cells at 0.25 uM incubated for 24 hrs by annexin-V/propidium iodide staining-based flow cytometry analysis (reference value: 0.43 %); assay type: functional
[6] = AUC(0 to infinity) in overnight fasted Sprague-Dawley rat at 20 mg/kg, po by HPLC analysis; assay type: ADME, organism-based; set-up: time infinity, dose 20 mg/kg, route po; details: in vivo
PC-9 [7] = assay: Antitumor activity against human PC-9 cells expressing EGFR L858R/T790M/C797S mutant xenografted in BALB/c nude mouse assessed as reduction in tumor weight at 10 to 40 mg/kg, po measured every day for 18 days by digital vernier caliper analysis; assay type: functional, organism-based; details: dose 10-40 mg/kg, time 18.0 day
[8] = test system: Epidermal growth factor receptor (Homo sapiens), P00533 [L858R,T790M,C797S]; assay: Inhibition of EGFR L858R/T790M/C797S mutant (unknown origin) at 1 uM relative to control
Epidermal growth factor receptor (Homo sapiens), P00533 [L858R,T790M,C797S], sequence (P00533 whole entry T790M/C797S/L858R): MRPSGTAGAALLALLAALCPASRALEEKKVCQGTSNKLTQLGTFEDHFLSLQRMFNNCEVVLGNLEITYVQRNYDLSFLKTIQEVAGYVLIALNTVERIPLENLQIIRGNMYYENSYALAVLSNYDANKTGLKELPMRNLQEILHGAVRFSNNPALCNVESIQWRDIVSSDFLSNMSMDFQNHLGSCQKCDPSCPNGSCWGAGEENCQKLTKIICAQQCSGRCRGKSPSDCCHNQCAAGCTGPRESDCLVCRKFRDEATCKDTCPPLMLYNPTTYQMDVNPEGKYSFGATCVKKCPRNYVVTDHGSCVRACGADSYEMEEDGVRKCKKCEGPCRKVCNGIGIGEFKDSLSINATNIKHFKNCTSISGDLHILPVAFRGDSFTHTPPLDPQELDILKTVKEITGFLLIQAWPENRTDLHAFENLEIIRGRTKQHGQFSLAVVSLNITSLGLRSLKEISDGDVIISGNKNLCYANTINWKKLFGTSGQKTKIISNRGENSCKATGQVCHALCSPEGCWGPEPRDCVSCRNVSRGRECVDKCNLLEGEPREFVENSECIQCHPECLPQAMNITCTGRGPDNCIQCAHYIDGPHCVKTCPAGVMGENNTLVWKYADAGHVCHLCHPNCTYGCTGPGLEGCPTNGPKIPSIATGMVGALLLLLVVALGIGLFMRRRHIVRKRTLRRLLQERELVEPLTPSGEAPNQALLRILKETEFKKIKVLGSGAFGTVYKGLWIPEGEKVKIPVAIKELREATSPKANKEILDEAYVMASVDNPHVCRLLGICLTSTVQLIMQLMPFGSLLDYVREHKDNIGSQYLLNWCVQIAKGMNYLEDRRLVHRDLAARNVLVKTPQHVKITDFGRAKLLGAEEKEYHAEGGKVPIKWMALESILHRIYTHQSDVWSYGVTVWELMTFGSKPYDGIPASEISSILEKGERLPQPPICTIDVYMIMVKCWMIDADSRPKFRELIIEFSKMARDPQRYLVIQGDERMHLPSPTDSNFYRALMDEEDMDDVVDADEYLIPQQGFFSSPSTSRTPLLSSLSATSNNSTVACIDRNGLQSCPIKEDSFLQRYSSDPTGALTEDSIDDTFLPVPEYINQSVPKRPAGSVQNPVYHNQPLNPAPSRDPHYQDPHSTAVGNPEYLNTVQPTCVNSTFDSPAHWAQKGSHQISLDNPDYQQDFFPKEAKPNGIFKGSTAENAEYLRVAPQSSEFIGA

[9] = Cmax in overnight fasted Sprague-Dawley rat at 20 mg/kg, po by HPLC analysis; assay type: ADME, organism-based; set-up: dose 20 mg/kg, route po; details: in vivo
[10] = Oral bioavailability in overnight fasted Sprague-Dawley rat at 20 mg/kg by HPLC analysis; assay type: ADME, organism-based; details: in vivo
PC-9 [11] = assay: Antiproliferative activity against human PC-9 cells expressing EGFR L858R/T790M/C797S mutant assessed as inhibition of cell growth incubated for 72 hrs by CCK-8 assay; assay type: functional, cell-based; details: PC-9, 72 h
[12] = AUC(0 to infinity) in overnight fasted Sprague-Dawley rat at 20 mg/kg, iv by HPLC analysis; assay type: ADME, organism-based; set-up: time infinity, dose 20 mg/kg, route iv; details: in vivo
[13] = Toxicity in BALB/c nude mouse xenografted with human PC-9 cells expressing EGFR L858R/T790M/C797S mutant assessed as body weight loss at 10 to 40 mg/kg, po measured every day for 18 days; assay type: organism-based; details: in vivo, 432 h, dose 10-40 mg/kg, time 18 day
PC-9 [14] = assay: Induction of apoptosis in human PC-9 cells expressing EGFR L858R/T790M/C797S mutant assessed as viable cells at 0.01 uM incubated for 24 hrs by annexin-V/propidium iodide staining-based flow cytometry analysis (reference value: 99.1 %); assay type: functional; details: read-out: Activity
[15] = Volume of distribution at steady state in overnight fasted Sprague-Dawley rat at 20 mg/kg, iv by HPLC analysis; assay type: ADME, organism-based; details: in vivo, read-out: Vdss
A549 = assay: Antiproliferative activity against human A549 cells assessed as inhibition of cell growth incubated for 72 hrs by CCK-8 assay; assay type: functional, cell-based; details: A549, 72 h
[16] = molecular target: Epidermal growth factor receptor (Homo sapiens, UniProt P00533, C797S/L858R/T790M); assay: Inhibition of EGFR L858R/T790M/C797S mutant (unknown origin)
Epidermal growth factor receptor, sequence (P00533 25-1210 T790M/C797S/L858R limits assumed): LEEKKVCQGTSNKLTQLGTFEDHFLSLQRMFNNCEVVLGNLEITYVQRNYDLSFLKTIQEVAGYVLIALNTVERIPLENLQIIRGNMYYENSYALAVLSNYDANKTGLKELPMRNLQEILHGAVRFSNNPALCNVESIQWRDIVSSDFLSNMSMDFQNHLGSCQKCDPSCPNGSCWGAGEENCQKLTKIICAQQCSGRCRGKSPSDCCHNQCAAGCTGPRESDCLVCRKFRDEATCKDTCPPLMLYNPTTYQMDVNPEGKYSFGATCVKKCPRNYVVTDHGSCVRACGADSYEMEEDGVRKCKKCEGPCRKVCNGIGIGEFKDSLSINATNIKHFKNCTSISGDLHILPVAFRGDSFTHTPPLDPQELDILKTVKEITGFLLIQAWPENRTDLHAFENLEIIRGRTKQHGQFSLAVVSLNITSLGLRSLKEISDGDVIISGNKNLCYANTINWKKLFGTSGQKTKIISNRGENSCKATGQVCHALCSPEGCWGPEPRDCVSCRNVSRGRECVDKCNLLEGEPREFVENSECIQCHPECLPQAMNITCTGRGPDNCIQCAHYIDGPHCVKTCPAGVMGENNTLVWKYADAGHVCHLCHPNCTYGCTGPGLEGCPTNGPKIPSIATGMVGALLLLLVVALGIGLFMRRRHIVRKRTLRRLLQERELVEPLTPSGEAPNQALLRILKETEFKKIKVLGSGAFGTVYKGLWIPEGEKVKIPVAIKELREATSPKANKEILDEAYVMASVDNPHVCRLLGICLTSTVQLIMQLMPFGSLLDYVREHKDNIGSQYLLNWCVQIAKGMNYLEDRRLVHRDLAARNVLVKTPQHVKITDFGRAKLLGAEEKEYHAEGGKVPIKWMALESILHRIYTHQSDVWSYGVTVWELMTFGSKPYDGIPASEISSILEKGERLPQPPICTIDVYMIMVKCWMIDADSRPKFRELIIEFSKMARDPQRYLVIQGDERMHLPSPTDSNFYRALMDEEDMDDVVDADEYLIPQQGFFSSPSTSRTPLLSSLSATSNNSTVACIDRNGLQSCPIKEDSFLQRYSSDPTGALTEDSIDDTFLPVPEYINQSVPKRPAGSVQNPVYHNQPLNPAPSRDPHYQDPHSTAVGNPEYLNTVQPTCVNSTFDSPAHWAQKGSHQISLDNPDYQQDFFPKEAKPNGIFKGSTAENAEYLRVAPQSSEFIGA

A-431 = assay: Antiproliferative activity against human A-431 cells assessed as inhibition of cell growth incubated for 72 hrs by CCK-8 assay; assay type: functional, cell-based; details: A-431, 72 h
[17] = Volume of distribution at steady state in overnight fasted Sprague-Dawley rat at 20 mg/kg, po by HPLC analysis; assay type: ADME, organism-based; details: in vivo
PC-9 [18] = assay: Induction of apoptosis in human PC-9 cells expressing EGFR L858R/T790M/C797S mutant assessed as dead cells at 0.05 uM incubated for 24 hrs by annexin-V/propidium iodide staining-based flow cytometry analysis (reference value: 0.43 %); assay type: functional
[19] = MRT (0 to infinity) in overnight fasted Sprague-Dawley rat at 20 mg/kg, iv by HPLC analysis; assay type: ADME, organism-based; details: in vivo
[20] = molecular target: Signal transducer and activator of transcription 3 (Homo sapiens) (UniProt P40763); assay: Inhibition of STAT3 phosphorylation in human PC-9 cells expressing EGFR L858R/T790M/C797S mutant at 0.01 to 1 uM by Western blot analysis; assay type: cell-based; details: dose 0.01-1 µM
Signal transducer and activator of transcription 3 (Homo sapiens), sequence (P40763 whole entry): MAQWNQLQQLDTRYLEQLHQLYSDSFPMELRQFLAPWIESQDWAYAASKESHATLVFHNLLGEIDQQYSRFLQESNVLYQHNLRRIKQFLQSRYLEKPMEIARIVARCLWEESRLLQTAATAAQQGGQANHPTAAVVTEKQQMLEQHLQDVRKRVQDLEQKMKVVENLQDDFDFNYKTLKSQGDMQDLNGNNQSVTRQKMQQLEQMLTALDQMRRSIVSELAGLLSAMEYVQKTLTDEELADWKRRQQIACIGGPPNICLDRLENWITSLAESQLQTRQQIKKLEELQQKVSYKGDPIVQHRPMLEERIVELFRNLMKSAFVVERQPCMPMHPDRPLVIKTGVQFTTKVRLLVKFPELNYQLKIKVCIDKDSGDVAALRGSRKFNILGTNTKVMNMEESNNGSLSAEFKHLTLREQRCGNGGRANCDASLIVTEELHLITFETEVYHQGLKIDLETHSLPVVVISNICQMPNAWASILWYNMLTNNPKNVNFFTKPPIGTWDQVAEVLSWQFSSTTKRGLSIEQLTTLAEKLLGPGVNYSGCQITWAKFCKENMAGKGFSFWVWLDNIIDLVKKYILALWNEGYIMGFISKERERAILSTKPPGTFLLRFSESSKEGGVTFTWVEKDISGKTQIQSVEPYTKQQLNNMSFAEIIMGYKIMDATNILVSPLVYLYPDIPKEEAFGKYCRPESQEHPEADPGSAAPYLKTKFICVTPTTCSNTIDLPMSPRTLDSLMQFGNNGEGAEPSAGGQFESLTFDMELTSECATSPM

[21] = molecular target: Serine/threonine-protein kinase AKT (Homo sapiens) (UniProt P31751+Q9Y243+P31749); assay: Inhibition of AKT phosphorylation in human PC-9 cells expressing EGFR L858R/T790M/C797S mutant at 0.01 to 1 uM by Western blot analysis; assay type: cell-based; details: dose 0.01-1 µM
Serine/threonine-protein kinase AKT (Homo sapiens), sequence (P31749 whole entry, looked up): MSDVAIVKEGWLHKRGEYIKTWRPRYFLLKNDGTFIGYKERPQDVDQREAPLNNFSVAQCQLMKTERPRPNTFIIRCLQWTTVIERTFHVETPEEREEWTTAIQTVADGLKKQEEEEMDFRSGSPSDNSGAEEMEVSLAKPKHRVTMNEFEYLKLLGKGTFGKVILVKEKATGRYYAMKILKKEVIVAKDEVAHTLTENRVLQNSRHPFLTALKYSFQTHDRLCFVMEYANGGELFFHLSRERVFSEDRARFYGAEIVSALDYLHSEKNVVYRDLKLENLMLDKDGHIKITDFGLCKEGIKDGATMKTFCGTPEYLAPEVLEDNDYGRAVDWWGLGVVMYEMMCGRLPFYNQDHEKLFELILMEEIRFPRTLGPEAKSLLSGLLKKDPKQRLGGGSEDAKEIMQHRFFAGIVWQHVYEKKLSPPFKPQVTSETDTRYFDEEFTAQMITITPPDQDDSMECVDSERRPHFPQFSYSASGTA
Serine/threonine-protein kinase AKT (Homo sapiens), sequence (P31751 whole entry, looked up): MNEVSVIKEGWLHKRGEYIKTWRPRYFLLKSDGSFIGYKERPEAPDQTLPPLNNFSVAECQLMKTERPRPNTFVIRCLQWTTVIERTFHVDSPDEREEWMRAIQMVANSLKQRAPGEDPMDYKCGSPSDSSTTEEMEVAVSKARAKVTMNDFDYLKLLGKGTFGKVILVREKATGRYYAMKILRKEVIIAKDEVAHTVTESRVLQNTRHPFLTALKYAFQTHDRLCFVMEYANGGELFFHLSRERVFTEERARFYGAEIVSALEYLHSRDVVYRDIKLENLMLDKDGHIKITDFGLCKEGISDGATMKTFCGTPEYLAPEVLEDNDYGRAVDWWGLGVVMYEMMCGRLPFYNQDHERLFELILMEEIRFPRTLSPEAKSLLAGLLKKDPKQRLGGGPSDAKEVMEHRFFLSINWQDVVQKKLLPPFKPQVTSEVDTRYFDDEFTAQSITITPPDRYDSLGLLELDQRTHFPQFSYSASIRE
Serine/threonine-protein kinase AKT (Homo sapiens), sequence (Q9Y243 whole entry, looked up): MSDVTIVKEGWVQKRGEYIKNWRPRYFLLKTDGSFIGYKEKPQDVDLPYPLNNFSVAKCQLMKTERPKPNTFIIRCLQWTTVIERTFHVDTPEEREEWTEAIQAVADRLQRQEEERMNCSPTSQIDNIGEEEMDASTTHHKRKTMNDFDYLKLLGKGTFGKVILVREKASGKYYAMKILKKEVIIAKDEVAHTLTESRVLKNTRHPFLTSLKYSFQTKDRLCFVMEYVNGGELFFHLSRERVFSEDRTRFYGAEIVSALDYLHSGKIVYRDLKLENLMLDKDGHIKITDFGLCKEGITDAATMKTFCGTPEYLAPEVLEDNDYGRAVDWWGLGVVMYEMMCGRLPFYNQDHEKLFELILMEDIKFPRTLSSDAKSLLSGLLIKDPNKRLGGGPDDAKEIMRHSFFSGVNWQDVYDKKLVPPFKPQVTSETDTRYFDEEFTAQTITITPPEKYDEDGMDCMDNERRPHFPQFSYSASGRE

[22] = test system: Epidermal growth factor receptor (Homo sapiens), P00533 [L858R,T790M,C797S]; assay: Inhibition of EGFR phosphorylation in human PC-9 cells expressing EGFR L858R/T790M/C797S mutant at 0.01 to 1 uM by Western blot analysis; assay type: cell-based; details: dose 0.01-1 µM
PC-9 [23] = assay: Induction of apoptosis in human PC-9 cells expressing EGFR L858R/T790M/C797S mutant assessed as early apoptotic cells at 0.05 uM incubated for 24 hrs by annexin-V/propidium iodide staining-based flow cytometry analysis (reference value: 0.3 %); assay type: functional
[24] = Half life in overnight fasted Sprague-Dawley rat at 20 mg/kg, po by HPLC analysis; assay type: ADME, organism-based; details: in vivo
PC-9 [25] = assay: Induction of apoptosis in human PC-9 cells expressing EGFR L858R/T790M/C797S mutant assessed as early apoptotic cells at 0.25 uM incubated for 24 hrs by annexin-V/propidium iodide staining-based flow cytometry analysis (reference value: 0.3 %); assay type: functional
[26] = MRT (0 to infinity) in overnight fasted Sprague-Dawley rat at 20 mg/kg, po by HPLC analysis; assay type: ADME, organism-based; details: in vivo
PC-9 [27] = assay: Induction of apoptosis in human PC-9 cells expressing EGFR L858R/T790M/C797S mutant assessed as viable cells at 0.25 uM incubated for 24 hrs by annexin-V/propidium iodide staining-based flow cytometry analysis (reference value: 99.1 %); assay type: functional; details: Homo sapiens, PC-9, read-out: Activity
PC-9 [28] = assay: Induction of apoptosis in human PC-9 cells expressing EGFR L858R/T790M/C797S mutant assessed as dead cells at 0.01 uM incubated for 24 hrs by annexin-V/propidium iodide staining-based flow cytometry analysis (reference value: 0.43 %); assay type: functional
PC-9 [29] = assay: Antitumor activity against human PC-9 cells expressing EGFR L858R/T790M/C797S mutant xenografted in po dosed BALB/c nude mouse assessed as inhibition of tumor growth measured every other day for 18 days by digital vernier caliper analysis; assay type: functional, organism-based; details: dose 10-40 mg/kg, time 18.0 day, DDE = dose-dependent effect
[30] = Tmax in overnight fasted Sprague-Dawley rat at 20 mg/kg, po by HPLC analysis; assay type: ADME, organism-based; details: in vivo
[31] = Cmax in overnight fasted Sprague-Dawley rat at 20 mg/kg, iv by HPLC analysis; assay type: ADME, organism-based; set-up: dose 20 mg/kg, route iv; details: in vivo
[32] = Clearance in overnight fasted Sprague-Dawley rat at 20 mg/kg, iv by HPLC analysis; assay type: ADME, organism-based; details: in vivo
PC-9 [33] = assay: Induction of apoptosis in human PC-9 cells expressing EGFR L858R/T790M/C797S mutant assessed as late apoptotic cells at 0.01 uM incubated for 24 hrs by annexin-V/propidium iodide staining-based flow cytometry analysis (reference value: 0.14 %); assay type: functional
PC-9 [34] = assay: Induction of apoptosis in human PC-9 cells expressing EGFR L858R/T790M/C797S mutant assessed as viable cells at 0.05 uM incubated for 24 hrs by annexin-V/propidium iodide staining-based flow cytometry analysis (reference value: 99.1 %); assay type: functional; details: read-out: Activity
[35] = test system: Epidermal growth factor receptor (Homo sapiens), P00533 [L858R,T790M,C797S]; assay: Inhibition of EGFR L858R/T790M/C797S mutant (unknown origin) at 0.5 uM relative to control
PC-9 [36] = assay: Induction of apoptosis in human PC-9 cells expressing EGFR L858R/T790M/C797S mutant assessed as late apoptotic cells at 0.05 uM incubated for 24 hrs by annexin-V/propidium iodide staining-based flow cytometry analysis (reference value: 0.14 %); assay type: functional
PC-9 [37] = assay: Cell cycle arrest in human PC-9 cells expressing EGFR L858R/T790M/C797S mutant assessed as increase in accumulation of cells at G0/G1 phase at 0.01 to 1 uM incubated for 24 hrs by RNase/PI staining based flow cytometry analysis; assay type: functional; details: dose 0.01-1 µM
[38] = Half life in overnight fasted Sprague-Dawley rat at 20 mg/kg, iv by HPLC analysis; assay type: ADME, organism-based; details: in vivo

CN1CCN(c2ccc(Nc3ncc4cc(CNc5ccccc5)n(C5CCCC5)c4n3)cc2)CC1
Tmax [1]: 4.98 min | CL/F [2]: 35.9 mL/min/kg | Activity (PC-9 [3]): 1.21% | Activity (PC-9 [4]): 10.7% | Activity (PC-9 [5]): 7.03% | AUC(0-inf) [6]: 10500 ng·h/mL | Activity (PC-9 [7]): Active | inhibition [8]: 90% | Cmax [9]: 770 ng/mL | bioavailability [10]: 66% | IC50 (PC-9 [11]): 13 nM | AUC(0-inf) [12]: 15900 ng·h/mL | Activity [13]: Non-Toxic | viability at 0.01 µM (PC-9 [14]): 93.1% | Vd [15]: 16 L/kg | IC50 (A549): 1030 nM | IC50 [16]: 17 nM | IC50 (A-431): 2970 nM | Vdss [17]: 28.101 L/kg | Activity (PC-9 [18]): 1.11% | MRT inf [19]: 16.4 h | inhibition [20]: Active | inhibition [21]: Active | inhibition [22]: Active | Activity (PC-9 [23]): 5.43% | half-life [24]: 11.2 h | Activity (PC-9 [25]): 6.8% | MRT inf [26]: 16.8 h | viability at 0.25 µM (PC-9 [27]): 75.4% | Activity (PC-9 [28]): 1.14% | Activity (PC-9 [29]): Dde | Tmax [30]: 6 h | Cmax [31]: 6840 ng/mL | clearance [32]: 21.2 mL/min/kg | Activity (PC-9 [33]): 4.53% | viability at 0.05 µM (PC-9 [34]): 88.2% | inhibition [35]: 83% | Activity (PC-9 [36]): 5.21% | Activity (PC-9 [37]): Active | half-life [38]: 8.92 h
